The record followed here is patent publication US7125559B2, “Cosmetic or dermatological composition comprising a combination of an elastase inhibitor of the N-acylaminoamide family and at least one myorelaxing agent” (L'Oreal, priority 2001, dated 2006).

The test system of experiment [1] is surviving human skins irradiated by UVA. In words: activity on surviving human skins irradiated by UVA (8 J/cm2), morphometry of elastin fibres and collagen (Example 6). As to conditions: UVA 8 J/cm2 + 5 μl compound at 0.2% in ethanol every two days, 7 days at 37° C. As for the experimental part: The activity of the compound of Example 2 was evaluated on irradiated surviving human skins irradiated by UVA (8 J/cm2).
(§1) The test is performed in the following manner:
Fragments of normal human skin derived from four different donors are deposited in inserts placed in culture wells. Culture medium supplemented with antibiotics is added to the bottom of the wells. Passage by slow diffusion occurs between the two compartments through the intermediary of a porous membrane (pore size: 12 μm).
(§2) The culture medium is renewed every three days.
Every two days 5 μl of the test compound previously dissolved at 0.2% in ethanol are added to the skin fragments.
The skins are maintained in survival for 7 days at 37° C.
The skins are irradiated once only at 8 J/cm2 (Vilbert-Lourmat RMX-3W lamp).
(§3) The elastin fibres are stained blue with (+) catechol and quantified morphometrically by computer-assisted image analysis. The mean percentage dermal surface area occupied by the elastin fibres was thus evaluated.

Experiment [2] deals with surviving human skins treated with human leukocyte elastase (HLE). In words: ex vivo activity on human skin fragments kept in survival 10 days with HLE, morphometry of elastin fibres (Example 5). As to conditions: three donors, mean; HLE 0.5 μg/ml + 5 μl compound at 0.2% in ethanol every two days, 10 days at 37° C.; HLE alone 5.1%, untreated 7.4%. Here is the method: (§4) The ex vivo activity of the compound of Example 2 was evaluated on surviving human skins treated with human leukocyte elastase (HLE).
(§5) The test was performed in the following manner:
Fragments of normal human skin derived from three different donors are deposited in inserts placed in culture wells. Culture medium supplemented with antibiotics is added to the bottom of the wells. Passage by slow diffusion occurs between the two compartments through the intermediary of a porous membrane (pore size: 12 μm).
as §2
Optionally 0.5 μg of HLE per ml of culture medium is added to the skin fragments.
5 μl of test compound previously dissolved at 0.2% by weight in ethanol are also added every two days.
The skins are maintained in survival for 10 days at 37° C.,
as §3

Experiment [3] shares this test system. In words: ex vivo activity on fresh sections of surviving human skins treated with HLE, morphometry of elastin fibres (Example 4). As to conditions: HLE 10 μg/ml + 0.1% test compound, 2 hours at 20° C. As for the experimental part: as §4, §1
Fresh sections of human skins derived from 2 different donors are treated for 2 hours at 20° C. with 20 μl of buffer solution (pH 7.4) containing optionally 10 μg/ml of HLE and optionally 0.1% of the test compound, optionally previously dissolved in ethanol.
The elastin fibres are stained blue with (+) catechol and quantified morphometrically by computer-assisted image analysis. The percentage of mean dermal surface occupied by the elastin fibres is thus evaluated

Experiment [4] has as its target T1, human leukocyte elastase (HLE) (Homo sapiens, UniProt P08246).
T1 sequence (P08246 30-267): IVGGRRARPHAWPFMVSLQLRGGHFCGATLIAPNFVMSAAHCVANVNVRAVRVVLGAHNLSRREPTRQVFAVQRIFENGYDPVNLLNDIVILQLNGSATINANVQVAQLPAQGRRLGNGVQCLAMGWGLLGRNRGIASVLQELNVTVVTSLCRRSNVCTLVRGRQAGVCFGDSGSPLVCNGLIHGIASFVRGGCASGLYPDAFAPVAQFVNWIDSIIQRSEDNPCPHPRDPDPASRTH
In words: anti-elastase activity in vitro against human leukocyte elastase (HLE), substrate Me-OSAAPV-p-NA, spectrophotometry. The format is biochemical. Here is the method:
The anti-elastase activity of compounds according to the invention was determined in vitro against human leukocyte elastase (HLE)
as §5
A substrate Me-OSAAPV-p-NA (methyl-O-succinate alanine alanine proline valine-p-nitroanilide) to which is added the HLE (40 milliunits per ml) and 0.1% of the test compound is incubated at 37° C. for 60 minutes.
The % of inhibition of the elastase activity tested is then determined by spectrophotometry.
In the same manner the % of inhibition of the control elastase activity was determined for the compound A at different concentrations

In the case of `CC(=O)N(c1cccc(C(F)(F)F)c1)C(C(=O)NCC(=O)O)C(C)C` (stereo not shown) [Compound A, {2-[acetyl-(3-trifluoromethyl-phenyl)-amino]-3-methyl-butyrylamino}acetic acid], the “Morphometric analysis of elastin fibres (superficial dermis)” value in experiment [1] (UVA alone 3.9%, untreated 6.75%) is given as 6.8%. Moreover, the “Morphometric analysis of collagen (superficial dermis)” value in experiment [1] (UVA alone 81%, untreated 87%) turned out to be 92%. The “% surface occupied by elastin fibres” value in experiment [2] is given as 7.1%; in experiment [3] (Skin 1, HLE alone 4.85%, untreated 12.7%) it was 13.95%; in experiment [3] (Skin 2, HLE alone 6.85%, untreated 15.25%), 11.85%. In experiment [4] (even at low concentration), the “inhibition of the elastase activity (in words)” value is “strong inhibition”.

Turning to `CCOC(=O)CNC(=O)C(C(C)C)N(Cc1ccccc1)C(=O)CP(=O)(OCC)OCC` (stereo not shown) [Compound B, (2-{benzyl-[(diethoxy-phosphoryl)-acetyl]-amino}-3-methyl-butyrylamino) ethyl acetate], the “% inhibition of elastase activity tested” value in experiment [4] (compound concentration 0.1%, HLE 40 milliunits per ml, 37° C., 60 minutes) came out at 17%.
